{
  "source": "patent US20150050677A1",
  "about": "“METHODS AND SYSTEMS FOR MEASURING WHOLE BLOOD PLATELET REACTIVITY” (University of Massachusetts Medical School, priority 2013, published 2015)",
  "key": {"[1]": {"tested_on": "ADP-induced platelet aggregation", "details": "P<0.0001", "procedure": "After collection of baseline blood samples but prior to coronary angiography, subjects were administered a loading dose of 300-600 mg clopidogrel. Percutaneous coronary intervention (PCI) was performed at the same time on an ad hoc basis at the discretion of the treating physician. Patients were excluded from further analysis if a glycoprotein IIb/IIIa antagonist was used during PCI.\nBlood samples were collected at baseline, prior to clopidogrel administration, and 6-24 hours later, after the catheterization procedure. After discarding the first 10 ml, blood was collected into siliconized glass vacutainers containing 3.2% sodium citrate (for platelet function testing and measurement of fibrinogen and vonWillebrand factor antigen) or EDTA-containing vacutainers (for complete blood counts). The samples were maintained at room temperature and hand-delivered to the laboratory where platelet function analyses were performed within 60 minutes of collection. Aliquots of centrifuged platelet-poor plasma and serum were stored at −70° C. until batch analyzed.\nCitrated blood was centrifuged to obtain platelet-rich plasma (PRP) and adjusted to a final platelet count of 180,000 mm^−3 as previously described. […]"}, "[2]": {"tested_on": "ADP-induced platelet aggregation", "details": "for Number of subjects with clopidogrel HTPR by original PRU: post-clopidogrel"}, "[3]": {"tested_on": "maximal platelet reactivity (iso-TRAP-induced platelet activation)", "details": "6-24 hours after 300-600 mg clopidogrel loading; pre-clopidogrel 279±47; p<0.0001; mean±SD"}, "[4]": {"tested_on": "platelet reactivity (PRU)", "details": "PRU value >208; of the 3283 patients screened; cited from earlier work"}, "[5]": {"tested_on": "platelet reactivity (PRU)", "details": "PRU≧235; of the 1213 patients in the assay-guided group; cited from earlier work"}},
  "note": "Where two headings read alike, the source gives them in different places.",
  "data": [
    {"smiles": "COC(=O)[C@H](c1ccccc1Cl)N1CCc2sccc2C1", "note": "[clopidogrel]", "values": [
      {"measurement": "median aggregation by WBA after clopidogrel loading", "setting": "[1]; 10 μM ADP, fell from 16 (IQR;11,24)", "result": "4 (IQR; 0,12) ohms"},
      {"measurement": "median aggregation by LTA after clopidogrel loading", "setting": "[1]; 20 μM ADP, fell from 84 (IQR;71, 94)", "result": "52 (IQR;37,70) percent"},
      {"measurement": "mean VerifyNow PRU following clopidogrel loading", "setting": "[2]; 6-24 hours after 300-600 mg clopidogrel loading, pre-clopidogrel 287±56, p<0.0001, mean±SD", "result": "179±90", "unit": "PRU"},
      {"measurement": "Number of subjects with clopidogrel HTPR by Corrected PRU", "setting": "[2]; PRU threshold ≧178, PRU corrected for hematocrit (7.5 PRU per percent around 42%)", "result": "46 (48%) subjects (%)"},
      {"measurement": "Number of subjects with clopidogrel HTPR by original PRU", "setting": "[2]; PRU threshold ≧178", "result": "50 (51%) subjects (%)"},
      {"measurement": "Number of subjects with clopidogrel HTPR by Corrected PRU", "setting": "[2]; PRU threshold ≧208, PRU corrected for hematocrit", "result": "33 (34%) subjects (%)"},
      {"measurement": "Number of subjects with clopidogrel HTPR by original PRU", "setting": "[2]; PRU threshold ≧208", "result": "39 (40%) subjects (%)"},
      {"measurement": "Number of subjects with clopidogrel HTPR by Corrected PRU", "setting": "[2]; PRU threshold ≧230, PRU corrected for hematocrit", "result": "21 (22%) subjects (%)"},
      {"measurement": "Number of subjects with clopidogrel HTPR by original PRU", "setting": "[2]; PRU threshold ≧230", "result": "31 (32%) subjects (%)"},
      {"measurement": "Number of subjects with clopidogrel HTPR by Corrected PRU", "setting": "[2]; PRU threshold ≧235, PRU corrected for hematocrit", "result": "19 (20%) subjects (%)"},
      {"measurement": "Number of subjects with clopidogrel HTPR by original PRU", "setting": "[2]; PRU threshold ≧235", "result": "30 (31%) subjects (%)"},
      {"measurement": "Number of subjects with clopidogrel HTPR by Corrected PRU", "setting": "[2]; PRU threshold ≧236, PRU corrected for hematocrit", "result": "18 (19%) subjects (%)"},
      {"measurement": "Number of subjects with clopidogrel HTPR by original PRU", "setting": "[2]; PRU threshold ≧236", "result": "30 (31%) subjects (%)"},
      {"measurement": "change in PRU following clopidogrel loading (mean PRU)", "setting": "[2]; subjects with anemia", "result": "106±89", "unit": "PRU"},
      {"measurement": "change in PRU following clopidogrel loading (mean PRU)", "setting": "[2]; subjects without anemia, p=0.96 vs anemia", "result": "107±85", "unit": "PRU"},
      {"measurement": "mean BASE following clopidogrel loading", "setting": "[3]", "result": "298±53", "unit": "Base units"},
      {"measurement": "patients classified as having HTPR", "setting": "[4]", "result": 625, "unit": "patients"},
      {"measurement": "patients with clopidogrel HTPR", "setting": "[5]", "result": "419 (35%) patients (%)"}
    ]}
  ]
}
